# Experimental data reported in paper PMC5399635 (The Journal of Pharmacology and Experimental Therapeutics, 2017).
# pEC50, pIC50, pKi: −log10 of the molar value. Values joined by “and” are separate entries in the source; they are usually repeats but may differ in a detail not shown here. Identical values can stand only once. “Also recorded” adds a separate entry of the source. Like-named read-outs stand apart in the source and are kept apart here.
# Experiments:
# [1] = tested on: peripheral and central effects of morphine; set-up: method as in Eldon et al., 2015; conditions: healthy male volunteers administered morphine; ref Eldon et al., 2015; cited from earlier work
# [2] = target: T1, κ-opioid receptors (Oryctolagus cuniculus, UniProt G1SJ19); experiment: Isolated field-stimulated rabbit vas deferens assay; conditions: concentrations up to 10 µM
# T1 construct: isolated tissue preparation from the rabbit vas deferens; from tissue; host or cells: rabbit vas deferens
# T1 sequence (G1SJ19 1-383): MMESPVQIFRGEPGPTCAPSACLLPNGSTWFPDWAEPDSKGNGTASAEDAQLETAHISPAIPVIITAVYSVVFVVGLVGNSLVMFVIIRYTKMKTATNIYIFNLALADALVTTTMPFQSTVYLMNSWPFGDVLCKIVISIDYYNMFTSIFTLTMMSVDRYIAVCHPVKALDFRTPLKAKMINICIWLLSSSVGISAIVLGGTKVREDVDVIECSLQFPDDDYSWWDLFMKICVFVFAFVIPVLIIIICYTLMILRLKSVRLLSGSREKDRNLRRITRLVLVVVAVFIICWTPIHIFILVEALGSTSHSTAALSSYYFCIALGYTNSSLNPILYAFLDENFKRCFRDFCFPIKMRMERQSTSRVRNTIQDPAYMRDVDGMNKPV
# Protocol: (§1) These were single experiments conducted across a range of 12 half-log concentrations, from […], with 1 replicate per concentration; experimental conditions were as described for [^35S]GTPγS binding experiments with human recombinant µ-opioid receptors. Functional activity at κ-opioid receptors was also determined in an isolated tissue preparation from the rabbit vas deferens, using methods detailed previously ([Oka et al., 1981]).
# [3] = tested on: morphine-induced inhibition of gastrointestinal transit; experiment: Gastrointestinal transit model (charcoal meal), antagonism of morphine
# [4] = tested on: Caco2 cells
# [5] = target: T2, human κ-opioid receptor (Homo sapiens, UniProt P41145); experiment: [35S]GTPγS functional assay, κ-opioid receptor (HEK-293 membranes); format: biochemical
# T2 construct: expressed in transfected cells; host or cells: HEK-293 cells
# T2 sequence (P41145 whole entry): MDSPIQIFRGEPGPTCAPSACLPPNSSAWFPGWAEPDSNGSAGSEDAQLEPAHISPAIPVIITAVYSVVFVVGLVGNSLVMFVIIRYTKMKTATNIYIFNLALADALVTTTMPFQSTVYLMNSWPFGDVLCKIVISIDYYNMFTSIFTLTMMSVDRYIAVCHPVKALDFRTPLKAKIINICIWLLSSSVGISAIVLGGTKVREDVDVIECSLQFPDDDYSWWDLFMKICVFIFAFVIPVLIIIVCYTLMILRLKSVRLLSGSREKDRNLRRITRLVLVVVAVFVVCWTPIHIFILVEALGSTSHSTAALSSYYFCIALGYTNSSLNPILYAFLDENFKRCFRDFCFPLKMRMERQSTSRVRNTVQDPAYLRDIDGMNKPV
# Protocol: as §1
# [6] = tested on: morphine-induced antinociception; experiment: Hot plate model of nociception, antagonism of morphine; conditions: Rattus norvegicus, po, read-out: ED50, antagonism of morphine analgesia
# [7] = tested on: panel of more than 300 receptors, ion channels, transporters, and enzymes; experiment: Binding screen across a panel of more than 300 targets; conditions: 10 µM; apart from opioid receptors; data not shown
# [8] = target: T3, human δ-opioid receptor (Homo sapiens, UniProt P41143); experiment: [35S]GTPγS functional assay, δ-opioid receptor (CHO membranes); format: biochemical; conditions: agonist mode, relative to DPDPE 10 µM; single experiment
# T3 construct: expressed in transfected cells; host or cells: CHO cells
# T3 sequence (P41143 whole entry): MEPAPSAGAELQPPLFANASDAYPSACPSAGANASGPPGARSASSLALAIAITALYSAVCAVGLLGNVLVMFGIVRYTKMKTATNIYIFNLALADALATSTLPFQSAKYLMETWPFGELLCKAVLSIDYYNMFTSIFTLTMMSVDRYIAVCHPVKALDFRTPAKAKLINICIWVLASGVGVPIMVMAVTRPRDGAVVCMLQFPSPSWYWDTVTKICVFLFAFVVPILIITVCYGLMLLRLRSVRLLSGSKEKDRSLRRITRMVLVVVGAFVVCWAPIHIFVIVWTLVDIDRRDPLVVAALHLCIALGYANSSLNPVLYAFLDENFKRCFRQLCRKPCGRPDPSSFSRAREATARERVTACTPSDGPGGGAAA
# [9] = target: T4, rat κ-opioid receptor (Rattus norvegicus, UniProt P34975); experiment: Radioligand binding, κ-opioid receptor ([3H]U69593)
# T4 construct: expressed in transfected cells; host or cells: CHO cells
# T4 sequence (P34975 whole entry): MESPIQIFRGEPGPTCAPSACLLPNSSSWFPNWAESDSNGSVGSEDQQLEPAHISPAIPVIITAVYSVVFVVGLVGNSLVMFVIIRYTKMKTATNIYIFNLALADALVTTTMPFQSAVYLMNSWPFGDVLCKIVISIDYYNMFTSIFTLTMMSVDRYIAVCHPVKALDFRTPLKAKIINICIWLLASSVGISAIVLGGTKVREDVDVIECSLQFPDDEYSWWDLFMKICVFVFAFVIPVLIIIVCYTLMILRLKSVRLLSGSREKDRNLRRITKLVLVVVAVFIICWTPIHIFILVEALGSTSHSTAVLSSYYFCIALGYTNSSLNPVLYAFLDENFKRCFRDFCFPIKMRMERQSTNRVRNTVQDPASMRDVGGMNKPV
# Protocol: Competitive inhibition studies were performed on cloned opioid receptors expressed in membranes of Chinese hamster ovary (CHO) cells and conducted in triplicate (n = 3 independent experiments).
# Radioligand binding assays were performed to evaluate the ability of these agents to inhibit specific radioligand binding to cloned opioid receptor subtypes. Half-maximal inhibitory concentration (IC50), equilibrium dissociation constant for the inhibitor (Ki), and negative log of the equilibrium dissociation constant for the inhibitor (pKi) values were obtained. The receptor binding methods used for µ ([Zhang et al., 1998])-, δ ([Simonin et al., 1994])-, and κ ([Meng et al., 1993])-opioid receptors have been described previously, with the exception that 100 mM NaCl was added to the incubation buffer in the µ-opioid receptor binding assay. All assays were conducted in 200-µl volume. All assay incubations were terminated by filtration, and bound radioligand was quantitated by liquid scintillation spectrometry. The IC50 values were determined by nonlinear regression analysis of the competition curves generated with the mean of duplicate values using Hill equation curve fitting. The inhibition constants (Ki) were calculated using the Cheng-Prusoff equation. The pKi results from three independent experiments were analyzed for significant differences by one-way analysis of variance (ANOVA) followed by Bonferroni multiple comparison test.
# [10] = tested on: other transporters; set-up: method as in earlier work; conditions: ref 2013 AstraZeneca unpublished data; cited from earlier work
# [11] = in vitro; conditions: human; for Papp A→B at 2 h, 10 μM: Caco-2, pH 7.4, Papp A→B; for Papp B→A at 2 h, 10 μM: Caco-2, pH 7.4, Papp B→A
# [12] = In situ rat brain perfusion model; conditions: 30 s perfusion, test compound 20 μM, atenolol 50 μM, antipyrine 5 μM, mean ± S.D.
# [13] = set-up: method as in Bui et al., 2016; conditions: quinidine; ref Bui et al., 2016; cited from earlier work
# [14] = no P-gp inhibitor, mean of 3 experiments
smiles,measurement,setting,value
"C=CCN1CC[C@]23c4c5ccc(O)c4O[C@H]2[C@@H](OCCOCCOCCOCCOCCOCCOCCOC)CC[C@@]3(O)[C@H]1C5 [Naloxegol, naloxegol]",effect on morphine-induced miosis,[1],no change in morphine-induced miosis
same,effect on orocecal transit time,[1],reduced orocecal transit time
same,agonist activity at κ-opioid receptors,[2],no agonist activity
same,oral dose that completely reversed the effect of morphine,"[3]; GI transit assay, rat",90 mg/kg
same,ED50,"[3]; Rattus norvegicus, read-out: ED50, antagonism of morphine in GI transit",23.1 mg/kg
same,times less potent than naloxone,[3]; comparison of ED50 values,approximately 33 fold
same,separation in PNS versus CNS effect,"[3]; rat, GI transit versus hot plate",twofold
same,efflux transporter substrate status,[4],"substrate for at least one apically directed efflux transporter, likely the P-gp transporter; also recorded: substrate for the P-glycoprotein transporter"
same,pIC50,"[5]; U69593 100 nM, read-out: IC50 (inhibition of response to U69593)",7.43
same,inhibition at 100 µM,"[5]; at 100 µM, read-out: maximal inhibition of response to U69593",62%
same,pEC50,[5]; read-out: EC50 (agonism),7.33
same,Emax,"[5]; read-out: maximal effect, agonism relative to U69593",39%
same,ED50,[6],55.4 mg/kg
same,inhibition of binding across panel,[7],≤ 30%
same,agonism,[8],no agonism
same,pKi,"[9]; cloned rat κ-opioid receptors, read-out: geometric mean Ki",8.06 and 8.07
same,Ki,"[9]; no measure named, read-out: κ-opioid receptor value expressed as plasma concentration (Fig. 5) (converted)",8.59 nM
same,substrate status for other transporters,[10],not a substrate of other transporters
same,"Papp A→B at 2 h, 10 μM",[11]; Cyclosporin A,1.8 ×10⁻⁶ cm/s
same,"Papp A→B at 2 h, 10 μM","[11]; Elacridar, 0.5 μM",2.3 ×10⁻⁶ cm/s
same,"Papp A→B at 2 h, 10 μM","[11]; Verapamil, 100 μM",1.3 ×10⁻⁶ cm/s
same,"Papp A→B at 2 h, 10 μM",[11]; [14],0.7 ×10⁻⁶ cm/s
same,"Papp B→A at 2 h, 10 μM",[11]; Cyclosporin A,1.8 ×10⁻⁶ cm/s
same,"Papp B→A at 2 h, 10 μM","[11]; Elacridar, 0.5 μM",2.5 ×10⁻⁶ cm/s
same,"Papp B→A at 2 h, 10 μM","[11]; Verapamil, 100 μM",1.7 ×10⁻⁶ cm/s
same,"Papp B→A at 2 h, 10 μM",[11]; [14],8.4 ×10⁻⁶ cm/s
same,Brain Uptake,[12],4.1 ± 1.4 pmol/g brain/s
same,CNS distribution when coadministered with a strong P-gp inhibitor,[13],unaffected
